Laboratory results: US20130217664A1, “NOVEL COMPOUNDS USEFUL FOR THE TREATMENT OF DEGENERATIVE AND INFLAMMATORY DISEASES” (priority 2012, published 2013)
Like-named read-outs stand apart in the source and are kept apart here.

Columns and labels:
human JAK1 = molecular target: T1, human JAK1 (Homo sapiens, UniProt P23458); test: JAK1 inhibition assay (polyGT substrate / Ulight-JAK1 peptide); assay type: biochemical; details: recombinant human JAK1 catalytic domain; polyGT or Ulight-JAK1 peptide assay
T1 construct: catalytic domain, amino acids 866-1154; catalog number PV4774; purchased Invitrogen PV4774
T1 sequence (P23458 866-1154): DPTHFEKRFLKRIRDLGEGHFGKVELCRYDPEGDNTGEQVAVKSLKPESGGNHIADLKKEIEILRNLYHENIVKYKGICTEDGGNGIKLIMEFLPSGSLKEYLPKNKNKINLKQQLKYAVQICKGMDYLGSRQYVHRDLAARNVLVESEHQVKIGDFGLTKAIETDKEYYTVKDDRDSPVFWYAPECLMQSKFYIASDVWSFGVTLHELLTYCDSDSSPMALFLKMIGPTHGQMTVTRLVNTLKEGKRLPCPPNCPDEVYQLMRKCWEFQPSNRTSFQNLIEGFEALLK
Summary of the method: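 Signal scaled between vehicle and 10 μM staurosporine. Radiometric polyGT reactions ran 45 min at 30 °C, counted after phosphoric-acid stop. Ulight peptide reactions ran 60 min at room temperature, fluorescence read after adding Eu-PT66 detection mix with EDTA.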

human JAK3 = molecular target: T2, human JAK3 (Homo sapiens, UniProt P52333); test: JAK3 inhibition assay; assay type: biochemical; details: recombinant human JAK3 catalytic domain; polyGT substrate
T2 construct: catalytic domain (amino acids 781-1124; catalog number PV3855); purchased Invitrogen PV3855
T2 sequence (P52333 781-1124): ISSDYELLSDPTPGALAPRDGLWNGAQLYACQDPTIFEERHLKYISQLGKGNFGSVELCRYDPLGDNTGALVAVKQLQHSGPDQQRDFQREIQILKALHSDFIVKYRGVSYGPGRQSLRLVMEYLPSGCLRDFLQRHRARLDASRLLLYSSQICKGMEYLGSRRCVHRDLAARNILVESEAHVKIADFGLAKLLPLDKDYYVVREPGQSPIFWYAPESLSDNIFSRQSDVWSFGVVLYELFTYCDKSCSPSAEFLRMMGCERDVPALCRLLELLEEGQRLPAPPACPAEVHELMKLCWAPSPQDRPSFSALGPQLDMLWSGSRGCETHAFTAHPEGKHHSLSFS
Summary of the method: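 Radiometric kinase assay: 0.5 ng JAK3 with 2.5 μg polyGT in Tris pH 7.5/MgCl2 buffer, 1 μM ATP plus 0.25 μCi 33P-γ-ATP, 1% DMSO, 45 min at 30 °C, stopped with phosphoric acid.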

human TYK2 = molecular target: T3, human TYK2 (Homo sapiens, UniProt P29597); test: TYK2 inhibition assay; assay type: biochemical; details: recombinant human TYK2 catalytic domain, polyGT substrate
T3 construct: catalytic domain (amino acids 871-1187; catalog number 08-147); purchased Carna Biosciences 08-147
T3 sequence (P29597 871-1187): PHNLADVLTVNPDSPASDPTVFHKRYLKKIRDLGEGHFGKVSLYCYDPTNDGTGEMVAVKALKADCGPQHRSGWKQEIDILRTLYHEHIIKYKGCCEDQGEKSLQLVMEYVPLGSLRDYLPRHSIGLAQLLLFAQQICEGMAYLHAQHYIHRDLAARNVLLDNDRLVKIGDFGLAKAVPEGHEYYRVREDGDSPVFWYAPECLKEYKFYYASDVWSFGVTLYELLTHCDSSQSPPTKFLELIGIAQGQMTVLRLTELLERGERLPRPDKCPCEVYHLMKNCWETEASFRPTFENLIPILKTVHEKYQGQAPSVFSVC
Summary of the method: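 Radiometric kinase reaction run 90 min at 30 °C, stopped with phosphoric acid, washed and scintillation-counted.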

[1] = test system: pSTAT1(2)-luciferase reporter in HeLa cells triggered with human OSM; test: JAK-STAT signalling assay; assay type: cell-based; details: HeLa cells, pSTAT1(2)-luciferase reporter, human OSM 33 ng/mL, read-out: JAK-STAT IC50
Procedure: JAK-STAT Signalling Assay
HeLa cells were maintained in Dulbecco's Modified Eagle's Medium (DMEM) containing 10% heat inactivated fetal calf serum, 100 U/mL penicillin and 100 μg/mL streptomycin. HeLa cells were used at 70% confluence for transfection. 20,000 cells in 87 μL cell culture medium were transiently transfected with 40 ng pSTAT1(2)-luciferase reporter (Panomics), 8 ng of LacZ reporter as internal control reporter and 52 ng of pBSK using 0.32 μL Jet-PEI (Polyplus) as transfection reagent per well in 96-well plate format. After overnight incubation at 37° C., 5% CO2, transfection medium was removed. 81 μL of DMEM+1.5% heat inactivated fetal calf serum was added. 9 μL compound at 10× concentration was added for 60 min and then 10 μL of human OSM (Peprotech) at 33 ng/mL final concentration.
After overnight incubation at 37° C., 5% CO2 cells were lysed by adding 100 μL lysis buffer/well (PBS, 0.9 mM CaCl2, 0.5 mM MgCl2, 10% Trehalose, 0.05% Tergitol NP9, 0.3% BSA).
40 μL of cell lysate was used to read β-galactosidase activity by adding 180 μL β-Gal solution (30 μL ONPG 4 mg/mL+150 μL β-Galactosidase buffer (0.06 M Na2HPO4, 0.04 M NaH2PO4, 1 mM MgCl2)) for 20 min.
Luciferase activity was measured using 40 μL cell lysate plus 40 μL of Steadylite as described by the manufacturer (Perkin Elmer), on the Envision (Perkin Elmer).
The positive and negative controls were used to calculate z′ and ‘percent inhibition’ (PIN) values.
Percentage inhibition=((fluorescence determined in the presence of vehicle−fluorescence determined for sample with test compound present)divided by(fluorescence determined in the presence of vehicle−fluorescence determined for sample without trigger))*100.
PIN values were plotted for compounds tested in dose-response and EC50 values were derived.

human JAK2 = molecular target: T4, human JAK2 (Homo sapiens, UniProt O60674); test: JAK2 inhibition assay (polyGT substrate / Ulight-JAK1 peptide); assay type: biochemical; details: recombinant human JAK2 catalytic domain; polyGT or Ulight-JAK1 peptide assay
T4 construct: catalytic domain (amino acids 808-1132; catalog number PV4210); GST; purchased Invitrogen PV4210
T4 sequence (O60674 808-1132): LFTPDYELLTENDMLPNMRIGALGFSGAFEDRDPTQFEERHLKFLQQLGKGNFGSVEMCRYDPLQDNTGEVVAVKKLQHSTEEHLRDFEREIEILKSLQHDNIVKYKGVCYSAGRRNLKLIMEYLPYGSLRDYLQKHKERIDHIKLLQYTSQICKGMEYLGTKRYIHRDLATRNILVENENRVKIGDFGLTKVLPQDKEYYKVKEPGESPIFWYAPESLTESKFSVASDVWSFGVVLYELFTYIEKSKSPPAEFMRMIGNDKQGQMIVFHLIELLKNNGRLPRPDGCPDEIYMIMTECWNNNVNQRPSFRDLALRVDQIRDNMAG
Summary of the method: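 Two JAK2 formats: a ^33P-ATP polyGT assay (1 μM cold ATP, 90 min, 30° C., cpm read-out) and a Ulight-JAK1 peptide assay read by Europium-anti-phosphotyrosine fluorescence after 60 min at room temperature.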

Compound | IC50 (human JAK1) [nM] | IC50 (human JAK3) [nM] | IC50 (human TYK2) [nM] | IC50 ([1]; Homo sapiens, HeLa) [nM] | IC50 [1] [nM] | IC50 (human JAK2) [nM]
CCc1cc(C2=CCN(C(=O)OC(C)(C)C)CC2)ccc1N(C)c1cc2c(cn1)ncn2C [Compound 154, tert-butyl 4-(3-ethyl-4-(methyl(1-methyl-1H-imidazo[4,5-c]pyridin-6-yl)amino)phenyl)-5,6-dihydropyridine-1(2H)-carboxylate] | 0.01 to 100 | > 1000 | 101 to 500 | > 1000 | – | –
CCc1cc(CN2CCN(C)CC2)ccc1N(C)c1cc2c(cn1)ncn2C [Compound 141, N-(2-ethyl-4-((4-methylpiperazin-1-yl)methyl)phenyl)-N,1-dimethyl-1H-imidazo[4,5-c]pyridin-6-amine] | 101 to 500 | > 1000 | > 1000 | > 1000 | – | –
CCc1cc(-c2nnc(N)s2)ccc1N(C)c1cc2c(cn1)ncn2C [Compound 193, 5-(3-Ethyl-4-(methyl(1-methyl-1H-imidazo[4,5-c]pyridin-6-yl)amino)phenyl)-1,3,4-thiadiazol-2-amine] | – | – | – | > 1000 | – | –
CCc1cc(-c2cnn(CC3(C)COC3)c2)ccc1N(C)c1cc2c(cn1)ncn2C [Compound 242, N-(2-ethyl-4-(1-((3-methyloxetan-3-yl)methyl)-1H-pyrazol-4-yl)phenyl)-N,1-dimethyl-1H-imidazo[4,5-c]pyridin-6-amine] | 0.01 to 100 | 501 to 1000 | 101 to 500 | – | > 1000 | –
CCc1cc(-c2ccccc2)ccc1N(C)c1cc2c(cn1)ncn2C [Compound 164, N-(3-ethylbiphenyl-4-yl)-N,1-dimethyl-1H-imidazo[4,5-c]pyridin-6-amine] | 0.01 to 100 | 101 to 500 | 0.01 to 100 | 501 to 1000 | – | –
CCc1cc(-c2cnn(CC(=O)N(C)C)c2)ccc1N(C)c1cc2c(cn1)ncn2C [Compound 220, 2-(4-(3-ethyl-4-(methyl(1-methyl-1H-imidazo[4,5-c]pyridin-6-yl)amino)phenyl)-1H-pyrazol-1-yl)-N,N-dimethylacetamide] | 0.01 to 100 | 101 to 500 | 0.01 to 100 | 501 to 1000 | – | –
CCc1cc(C2=CCN(C(C)=O)CC2)ccc1N(C)c1cc2c(cn1)ncn2C [Compound 168, 1-(4-(3-ethyl-4-(methyl(1-methyl-1H-imidazo[4,5-c]pyridin-6-yl)amino)phenyl)-5,6-dihydropyridin-1(2H)-yl)ethanone] | 0.01 to 100 | 101 to 500 | 0.01 to 100 | 1 to 500 | – | –
CCc1cc(CNC(=O)OC(C)(C)C)ccc1N(C)c1cc2c(cn1)ncn2C [Compound 252, tert-Butyl 3-ethyl-4-(methyl(1-methyl-1H-imidazo[4,5-c]pyridin-6-yl)amino)benzylcarbamate] | – | – | – | > 1000 | – | –
CCc1cc(C#N)c(C(F)(F)F)cc1N(C)c1cc2c(cn1)ncn2C [Compound 321, 5-Ethyl-4-[methyl-(1-methyl-1H-imidazo[4,5-c]pyridin-6-yl)-amino]-2-trifluoromethyl-benzonitrile] | > 1000 | > 1000 | > 1000 | – | – | > 1000
CCc1cc(C2CN(C(=O)C3CC(F)(F)C3)C2)ncc1N(C)c1cc2c(cn1)ncn2C [Compound 340] | 101 to 500 | > 1000 | > 1000 | – | – | > 1000
CN(c1cc2c(cn1)ncn2C)c1ccccc1F [Compound 67, N-(2-fluorophenyl)-N,1-dimethyl-1H-imidazo[4,5-c]pyridin-6-amine] | 101 to 500 | > 1000 | 101 to 500 | – | – | > 1000

The next lines start with the values.

IC50 (human JAK1) [nM] | IC50 (human JAK3) [nM] | IC50 (human TYK2) [nM] | IC50 ([1]; Homo sapiens, HeLa) [nM] | IC50 [1] [nM] | IC50 (human JAK2) [nM] | Compound
0.01 to 100 | > 1000 | 101 to 500 | > 1000 | – | – | CCc1cc(-c2cnc(OC3COC3)nc2)ccc1N(C)c1cc2c(cn1)ncn2C [Compound 212, N-(2-Ethyl-4-(2-(oxetan-3-yloxy)pyrimidin-5-yl)phenyl)-N,1-dimethyl-1H-imidazo[4,5-c]pyridin-6-amine]
0.01 to 100 | 101 to 500 | 101 to 500 | > 1000 | – | – | CCc1cc(CNC(=O)CC#N)ccc1N(C)c1cc2c(cn1)ncn2C [Compound 255, 2-cyano-N-(3-ethyl-4-(methyl(1-methyl-1H-imidazo[4,5-c]pyridin-6-yl)amino)benzyl)acetamide]
0.01 to 100 | 101 to 500 | 0.01 to 100 | 1 to 500 | – | – | CCc1cc(C2=CCOCC2)ccc1N(C)c1cc2c(cn1)ncn2C [Compound 153, N-(4-(3,6-dihydro-2H-pyran-4-yl)-2-ethylphenyl)-N,1-dimethyl-1H-imidazo[4,5-c]pyridin-6-amine]
0.01 to 100 | 0.01 to 100 | 0.01 to 100 | 1 to 500 | – | – | CCc1cc(C2=CCN(C(=O)C(C)NC(=O)OC(C)(C)C)CC2)ccc1N(C)c1cc2c(cn1)ncn2C (stereo not drawn) [Compound 249, tert-butyl 1-(4-(3-ethyl-4-(methyl(1-methyl-1H-imidazo[4,5-c]pyridin-6-yl)amino)phenyl)-5,6-dihydropyridin-1(2H)-yl)-1-oxopropan-2-ylcarbamate]
0.01 to 100 | 101 to 500 | 0.01 to 100 | > 1000 | – | – | CCc1cc(C2=CCN(C(=O)N(C)CC)CC2)ccc1N(C)c1cc2c(cn1)ncn2C [Compound 206, N-ethyl-4-(3-ethyl-4-(methyl(1-methyl-1H-imidazo[4,5-c]pyridin-6-yl)amino)phenyl)-N-methyl-5,6-dihydropyridine-1(2H)-carboxamide]
0.01 to 100 | > 1000 | 101 to 500 | > 1000 | – | – | COC(=O)NCc1ccc(N(C)c2cc3c(cn2)ncn3C)c(F)c1 [Compound 283, {3-Fluoro-4-[methyl-(1-methyl-1H-imidazo[4,5-c]pyridin-6-yl)-amino]-benzyl}-carbamic acid methyl ester]
0.01 to 100 | > 1000 | 101 to 500 | 501 to 1000 | – | – | CCc1cc(CN2CCOCC2)ccc1N(C)c1cc2c(cn1)ncn2C [Compound 142, N-(2-ethyl-4-(morpholinomethyl)phenyl)-N,1-dimethyl-1H-imidazo[4,5-c]pyridin-6-amine]
> 1000 | > 1000 | > 1000 | > 1000 | – | – | CCN(c1cc2c(cn1)ncn2C)c1ccc(C#N)cc1F [Compound 266, 4-(ethyl(1-methyl-1H-imidazo[4,5-c]pyridin-6-yl)amino)-3-fluorobenzonitrile]
101 to 500 | > 1000 | > 1000 | – | – | > 1000 | COc1ccc(N(C)c2cc3c(cn2)ncn3C)cc1 [Compound 2, N-(4-methoxyphenyl)-N,1-dimethyl-1H-imidazo[4,5-c]pyridin-6-amine]
> 1000 | > 1000 | > 1000 | – | – | > 1000 | CCc1ccccc1N(Cc1ccccn1)c1cc2c(cn1)ncn2C [Compound 461, N-(2-ethylphenyl)-1-methyl-N-(pyridin-2-ylmethyl)-1H-imidazo[4,5-c]pyridin-6-amine]
